{"source": "paper PMC8775487", "about": "“Insights into Asparaginase from Endophytic Fungus Lasiodiplodia theobromae: Purification, Characterization and Antileukemic Activity” (International Journal of Environmental Research and Public …, 2022)", "system": "T1, purified asparaginase from L. theobromae", "T1 construct": "native extracellular enzyme purified from culture filtrate of asparagine-induced endophytic fungus (acetone, Q-FF, Sephadex G-100); about 70 kDa on SDS-PAGE", "test": "direct Nesslerization of released ammonia; Lineweaver-Burk and Michaelis-Menten plots", "type": "biochemical, Lasiodiplodia theobromae", "settings": "asparagine 0-20 mM; standard assay pH 7, 37 °C", "source_text": "direct Nesslerization of released ammonia; Lineweaver-Burk and Michaelis-Menten plots on purified asparaginase from L. theobromae | Michaelis constant Km and maximum velocity Vmax of the purified asparaginase from L. theobromae were […]"}
{"molecule": "NC(=O)C[C@H](N)C(=O)O", "note": "[asparagine]", "values": [{"measurement": "Km", "value": 9.37, "unit": "µM"}]}
